Tests used:
[1] = Cytotoxicity against human K562 cells assessed as decrease in cell viability by MTT assay; type: functional
[2] = biological target: Tyrosine-protein kinase ABL1 (Homo sapiens, UniProt P00519); assay: Inhibition of wild type recombinant human Abl using abtide as substrate by [gamma-32P]ATP based assay
Homo sapiens = organism: Homo sapiens; assay: Inhibition of recombinant PI3K (unknown origin) assessed as residual activity at 100 uM by [gamma-32P]ATP based assay

Sequence of Tyrosine-protein kinase ABL1 (P00519 whole entry): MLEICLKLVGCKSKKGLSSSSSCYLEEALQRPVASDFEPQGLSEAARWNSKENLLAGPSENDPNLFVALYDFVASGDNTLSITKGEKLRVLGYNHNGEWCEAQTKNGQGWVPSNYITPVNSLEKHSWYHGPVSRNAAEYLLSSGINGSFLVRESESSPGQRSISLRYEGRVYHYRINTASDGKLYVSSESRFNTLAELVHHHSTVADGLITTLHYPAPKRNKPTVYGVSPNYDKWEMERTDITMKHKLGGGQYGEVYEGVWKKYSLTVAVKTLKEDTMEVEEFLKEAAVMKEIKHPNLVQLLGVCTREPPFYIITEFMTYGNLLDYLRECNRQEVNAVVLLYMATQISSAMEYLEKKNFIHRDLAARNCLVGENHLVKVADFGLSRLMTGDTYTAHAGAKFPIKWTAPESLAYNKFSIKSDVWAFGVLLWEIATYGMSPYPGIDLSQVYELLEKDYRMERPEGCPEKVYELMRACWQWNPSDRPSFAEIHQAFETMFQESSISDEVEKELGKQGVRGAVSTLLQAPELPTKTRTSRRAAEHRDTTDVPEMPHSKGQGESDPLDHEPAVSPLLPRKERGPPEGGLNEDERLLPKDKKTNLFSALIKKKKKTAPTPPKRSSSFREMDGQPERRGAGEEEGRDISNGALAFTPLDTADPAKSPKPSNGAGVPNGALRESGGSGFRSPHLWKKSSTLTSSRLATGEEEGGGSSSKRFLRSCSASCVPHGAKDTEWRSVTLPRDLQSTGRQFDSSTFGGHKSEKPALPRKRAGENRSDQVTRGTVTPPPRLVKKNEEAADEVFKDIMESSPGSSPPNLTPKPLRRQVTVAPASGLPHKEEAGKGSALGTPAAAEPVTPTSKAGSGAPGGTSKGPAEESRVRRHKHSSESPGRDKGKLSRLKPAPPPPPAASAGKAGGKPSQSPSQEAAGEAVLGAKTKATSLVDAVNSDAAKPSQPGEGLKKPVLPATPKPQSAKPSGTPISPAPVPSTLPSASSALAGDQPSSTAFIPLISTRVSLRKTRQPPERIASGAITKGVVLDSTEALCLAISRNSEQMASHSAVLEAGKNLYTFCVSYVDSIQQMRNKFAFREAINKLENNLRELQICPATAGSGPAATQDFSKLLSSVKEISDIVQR

Row | IC50 [2] | Activity (Homo sapiens) | SMILES | CC50 [1]
1 | 110000 nM | – | O=c1c2cnn(-c3ccccc3)c2nc(N/N=C/c2ccc(F)cc2)n1-c1ccccc1 | 4060 nM
2 | – | 80% | COc1ccc(C(=O)NNc2nc3c(cnn3-c3ccccc3)c(=O)n2-c2ccccc2)cc1 | 50 nM
3 | – | 90% | COc1ccc(-c2nnc3n(-c4ccccc4)c(=O)c4cnn(-c5ccccc5)c4n23)cc1 | 1060 nM
4 | – | 100% | O=C(NNc1nc2c(cnn2-c2ccccc2)c(=O)n1-c1ccccc1)c1ccccc1 | 70 nM

Further lines, the compound ahead of its results:

Row | SMILES | IC50 [2] | Activity (Homo sapiens) | CC50 [1]
5 | O=C(NNc1nc2c(cnn2-c2ccccc2)c(=O)n1-c1ccccc1)c1ccc(Cl)cc1 | – | – | 860 nM
6 | Cc1nc(Nc2ncc(C(=O)Nc3c(C)cccc3Cl)s2)cc(N2CCN(CCO)CC2)n1 [DASATINIB] | – | – | 250 nM
7 | O=c1c2cnn(-c3ccccc3)c2n2c(Nc3ccccc3)nnc2n1-c1ccccc1 | 150000 nM | – | 4920 nM
8 | NNc1nc2c(cnn2-c2ccccc2)c(=O)n1-c1ccccc1 | – | – | 2370 nM
9 | O=c1c2cnn(-c3ccccc3)c2n2c(-c3ccccc3)nnc2n1-c1ccccc1 | – | 82% | 920 nM

Reference: ChEMBL document CHEMBL3871261, “Novel pyrazolo[3,4-d]pyrimidines as dual Src-Abl inhibitors active against mutant form of Abl and the leukemia K-562 cell line” (Eur J Med Chem, 2016)
